From PubChem BioAssay AID1648 (Sanford-Burnham Center for Chemical Genomics, 2009) come the findings set out here.

Molecules are shown by their SMILES. Calls of active or inactive are those of the source. No rule for the calls is given here.

This experiment deals with Serine/threonine-protein kinase mTOR (Homo sapiens) (UniProt P42345). The experiment is described as follows: mTOR FRB domain ligand binding – biophysical, NMR (AID 1648). Particulars: NMR binding to FRB domain, chemical shift.
Chain of Serine/threonine-protein kinase mTOR (Homo sapiens) (P42345 2015-2114): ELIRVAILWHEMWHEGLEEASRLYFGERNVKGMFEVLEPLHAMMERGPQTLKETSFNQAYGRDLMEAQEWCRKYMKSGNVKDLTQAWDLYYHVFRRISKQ
`Cc1ccc(C)n1/N=C1\NC(=O)CS1`: the Kd is > 4 mM (inactive).

For `CSc1nn(-c2ccccc2)c(N)c1C#N`, the Kd was > 4 mM (inactive).

`CCOC(=O)c1ccc(F)cc1F`: the Kd is > 4 mM (inactive).

For `CC(=O)NCCc1cc2ccc(C)c(C)c2[nH]c1=O`, the Kd was > 4 mM (inactive).

Regarding `c1cc2n(c1)CCNC2c1ccncc1` (stereo not drawn), the Kd is > 4 mM (inactive).

For `NCCc1ccc(S(N)(=O)=O)cc1`, the Kd is > 4 mM (inactive).

As to `N#Cc1nc(N2CCCCC2)nc(N2CCOCC2)n1`, the Kd was > 4 mM (inactive).

`COC(=O)c1scc(C)c1N`: the Kd was > 4 mM (inactive).

Take `Cc1nnc2sc(-c3ccco3)nn12`: the Kd is > 4 mM (inactive).

On to `NS(=O)(=O)c1ccc(NC(=O)c2ccccc2F)cc1`, for which the Kd was > 4 mM (inactive).

As to `NC(CC(=O)O)c1ccccc1` (stereo not drawn), the Kd was > 4 mM (inactive).

For the compound `O=C(/C(=N\O)n1cncn1)c1ccccc1Cl`, the Kd is > 4 mM (inactive).

Consider `CC(C)(C)c1cc(NC(=O)c2cccnc2)no1`, for which the Kd was > 4 mM (inactive).

For `C[C@@H](N)[C@@H](O)c1ccccc1`, the Kd was > 4 mM (inactive).

On to `O=C(C1CCC(C(=O)N2CCCC2)CC1)N1CCCC1` (stereo not drawn), for which the Kd is > 4 mM (inactive).

Regarding `O=C(CC1CCCCC1)N1CCN(c2ccccn2)CC1`, the Kd was > 4 mM (inactive).

As for `Cc1nnc(SCc2ccc(F)cc2)s1`, the Kd is > 4 mM (inactive).

Regarding `O=C1NC(=O)C(C(C[N+](=O)[O-])c2ccc(O)cc2)C(=O)N1` (stereo not drawn), the Kd is > 4 mM (inactive).

As for `COc1ccccc1-c1c(C)nn2c(C)c(C(C)=O)cnc12`, the Kd is > 4 mM (inactive).

With `O=C1c2ccccc2C(=O)N1CCc1ccccn1`, the Kd is > 4 mM (inactive).

For the compound `C#CCCCCCCCCCCCC(=O)CC(O)COC(C)=O` (stereo not drawn), the Kd was > 4 mM (inactive).

In the case of `CCOc1nc(C)ccc1-c1noc(-c2ccco2)n1`, the Kd was > 4 mM (inactive).

In the case of `Cc1nn(CC(=O)Nc2ccccc2)c(=O)c2ccccc12`, the Kd was > 4 mM (inactive).

As to `O=C(NCc1cccc(Cl)c1)c1ccco1`, the Kd is > 4 mM (inactive).

As for `CCSc1nc(=S)n(CC)c(C)c1C(C)=O`, the Kd was > 4 mM (inactive).

Turning to `O=S(=O)(O)c1nc2ccccc2[nH]1`, the Kd was > 4 mM (inactive).

In the case of `O=C(NC1CSCC1O)c1ccccc1` (stereo not drawn), the Kd was > 4 mM (inactive).

On to `CCOC(=O)Cn1cnc2sc3c(c2c1=O)CCC3`, for which the Kd was > 4 mM (inactive).

Regarding `O=C(O)c1cnc2n(c1=O)CCS2`, the Kd is > 4 mM (inactive).

For `Oc1ccc2nonc2c1`, the Kd is > 4 mM (inactive).

Consider `Nc1cccc(OC(F)(F)F)c1`, for which the Kd was > 4 mM (inactive).

Regarding `COc1ccccc1C(=O)Nc1ccccn1`, the Kd is > 4 mM (inactive).

For the compound `O=c1c(-c2cccs2)[n+]([O-])c2ccccc2n1O`, the Kd is > 4 mM (inactive).

Turning to `C=C1C2CC[C@@]3(C)[C@H](c4ccoc4)OC(=O)C[C@]13O[C@H]1CC(=O)C(C)(C)C(CC(=O)OC)C21C` (stereo partly drawn), the Kd was > 4 mM (inactive).

Consider `Cn1nnc2c(N3CCC(C(N)=O)CC3)ncnc21`, for which the Kd is > 4 mM (inactive).

With `CC(=O)Nc1ccc(N(C)C(C)=O)cc1`, the Kd was > 4 mM (inactive).

For the compound `Cc1ccc(C(=O)Nc2nnc(-c3ccncc3)s2)o1`, the Kd is > 4 mM (inactive).

`Cc1ccc(S(=O)(=O)CCc2ccccn2)cc1`: the Kd is > 4 mM (inactive).

Consider `O=C(NCc1cccs1)c1ccc2c(c1)OCCO2`, for which the Kd was > 4 mM (inactive).

`COn1c(=O)c(C)[n+]([O-])c2ccccc21`: the Kd is > 4 mM (inactive).

For the compound `CC(=O)O[C@@H]1CC2C(C)(C)C(=O)C=C[C@]2(C)C2CC[C@@]3(C)[C@H](c4ccoc4)OC(=O)[C@H]4O[C@]43[C@@]21C` (stereo partly drawn), the Kd is > 4 mM (inactive).

In the case of `O=c1[nH]cc(CN2CCOCC2)c(=O)[nH]1`, the Kd was > 4 mM (inactive).

Turning to `CSc1ccccc1NC(=O)c1cnccn1`, the Kd was > 4 mM (inactive).

`CN(C)N1C(=O)C2C3C=CC(O3)C2C1=O` (stereo not drawn): the Kd was > 4 mM (inactive).

In the case of `CCc1ccc(C(=O)N2CCCC2)s1`, the Kd is > 4 mM (inactive).

In the case of `CC(=O)Nc1nnc(-c2ccccc2S(C)(=O)=O)o1`, the Kd was > 4 mM (inactive).

Regarding `COc1ccc(C2(C)CC(=O)NC2=O)cc1` (stereo not drawn), the Kd is > 4 mM (inactive).

In the case of `O=C(NCc1ccco1)c1nc2ncccn2n1`, the Kd was > 4 mM (inactive).

Regarding `CC(=O)N1CCc2cc(NC(=O)c3ccc(C)cc3)ccc21`, the Kd was > 4 mM (inactive).

For the compound `O=C(O)Cc1c[nH]c2ccccc12`, the Kd is > 4 mM (inactive).

`CCn1c2ccccc2c2nn(C)c(=N)nc21`: the Kd was > 4 mM (inactive).

In the case of `COC(=O)c1ccc2nc[nH]c2c1`, the Kd was > 4 mM (inactive).

For `O=C(O)c1ccc(-n2cncn2)cc1`, the Kd is > 4 mM (inactive).

As to `Cc1cc(NC(=O)c2c(F)c(F)c(F)c(F)c2F)no1`, the Kd is > 4 mM (inactive).

For `Cc1scc(C(=O)Nc2ccon2)c1-c1ccccc1`, the Kd was > 4 mM (inactive).

In the case of `Cc1n[nH]c(C)c1NC(=O)c1cccc(F)c1`, the Kd is > 4 mM (inactive).

Consider `CC(=O)Nc1cccc(N(C)S(C)(=O)=O)c1`, for which the Kd is > 4 mM (inactive).

In the case of `CS(=O)(=O)c1ccc2nc(N)sc2c1`, the Kd was > 4 mM (inactive).

As for `COC(=O)c1c(OC)cc2c(c1C)Oc1c(Cl)c(O)c(Cl)c(C)c1C(=O)O2`, the Kd was > 4 mM (inactive).

`Nc1c(S(=O)(=O)c2ccccc2)csc1C(=O)O`: the Kd is > 4 mM (inactive).

In the case of `CC(C)c1ccccc1NC(=O)c1cnccn1`, the Kd was > 4 mM (inactive).

`Cn1cnc2c(=S)[nH]c(=O)n(Cc3ccccc3)c21`: the Kd is > 4 mM (inactive).

As to `O=C1OC(N2CCOCC2)c2ccccc21` (stereo not drawn), the Kd was > 4 mM (inactive).

Turning to `OCc1csc(-c2ccccc2)n1`, the Kd was > 4 mM (inactive).

In the case of `Cc1csc2nc(=O)c3ccccc3n12`, the Kd is > 4 mM (inactive).

Turning to `Cc1cc(C)n(S(=O)(=O)c2cc(C)c(C)cc2C)n1`, the Kd is > 4 mM (inactive).

For the compound `NC(=O)c1ccsc1NC(=O)C1=COCCO1`, the Kd is > 4 mM (inactive).

With `O=C1NC(=S)N/C1=C/c1ccc(O)c(Cl)c1`, the Kd was > 4 mM (inactive).

On to `CSc1nnc(CN2CCSCC2)n1C`, for which the Kd is > 4 mM (inactive).

As for `C/C=C/c1ccc2c(c1)OCO2`, the Kd was > 4 mM (inactive).

Turning to `Nc1ccc2nccnc2c1`, the Kd is > 4 mM (inactive).

As to `CCOC(=O)CSCC(=O)Nc1nccs1`, the Kd was > 4 mM (inactive).

For the compound `OCC1CCN(Cc2ccccc2)CC1`, the Kd is > 4 mM (inactive).

Consider `O=C(Nc1nnc(-c2ccccc2Cl)o1)c1ccco1`, for which the Kd is > 4 mM (inactive).

As to `Cc1cc(C)n(-c2ccc(Cl)nn2)n1`, the Kd is > 4 mM (inactive).

On to `CC(=O)c1ccc(-n2ccnc2)cc1`, for which the Kd was > 4 mM (inactive).

Take `CSc1cc(C)[nH]c(=O)n1`: the Kd was > 4 mM (inactive).

As to `NC(=O)C1CCN(c2ccc(Cl)nn2)CC1`, the Kd was > 4 mM (inactive).

For `CN1CCC(NC(=O)c2ccccc2[N+](=O)[O-])CC1`, the Kd is > 4 mM (inactive).

As to `Cc1nn2c3ccccc3nc2n(Cc2ccccc2)c1=O`, the Kd was > 4 mM (inactive).

As for `Cc1cc(C)n2nc(Cc3ccccc3)nc2n1`, the Kd is > 4 mM (inactive).

Regarding `c1ccc(C2NCCc3[nH]cnc32)cc1` (stereo not drawn), the Kd is > 4 mM (inactive).

Regarding `Cc1noc(C)c1C(=O)Nc1cccnc1`, the Kd was > 4 mM (inactive).

Regarding `Cc1nnc(SCc2cccs2)[nH]c1=O`, the Kd is > 4 mM (inactive).

Consider `O=C(O)c1ccc2c(c1)OCO2`, for which the Kd is > 4 mM (inactive).

As to `CC(=O)c1csc(-c2cc(C)on2)n1`, the Kd is > 4 mM (inactive).

For `O=C(NC1CC1)c1ccccc1[N+](=O)[O-]`, the Kd is > 4 mM (inactive).

In the case of `Cc1cc(C)n2nc(C(=O)Nc3cccnc3)nc2n1`, the Kd is > 4 mM (inactive).

Regarding `NC1=NC(=O)C(Cc2ccccc2)S1` (stereo not drawn), the Kd was > 4 mM (inactive).

With `O=C1CSC(=NC(=O)c2ccccc2)N1`, the Kd is > 4 mM (inactive).

Regarding `COC(=O)C[C@H]1C(C)(C)C(=O)[C@@H]2CC3=C(CC[C@]4(C)C3=CC(=O)O[C@H]4c3ccoc3)C1(C)C2=O`, the Kd was > 4 mM (inactive).

For `Cc1nnc(SCC(N)=O)c2ccccc12`, the Kd was > 4 mM (inactive).

In the case of `COc1cc2nc(N3CCNCC3)nc(N)c2cc1OC`, the Kd is > 4 mM (inactive).

As for `CC(=O)Cc1nsc(NC(=O)c2ccc(C)cc2)n1`, the Kd is > 4 mM (inactive).

As for `O=C1NC(=S)NC(=O)C1=Cc1ccco1`, the Kd was > 4 mM (inactive).

For `Cc1ccc2[nH]cc(CCN)c2c1`, the Kd was > 4 mM (inactive).

For `Cc1nc2nc(Cc3ccccc3)nn2c(C)c1Cl`, the Kd is > 4 mM (inactive).

As for `CNC(=O)Nc1ccc(C(=O)NC)cc1`, the Kd is > 4 mM (inactive).

Turning to `O=C(Nc1ccc2c(c1)OCCO2)c1c(F)cccc1F`, the Kd is > 4 mM (inactive).

Take `O=C1CCC(=O)N1CN1CCOCC1`: the Kd is > 4 mM (inactive).

On to `CCCNC(=O)CSc1ncccc1C(=O)O`, for which the Kd is > 4 mM (inactive).

`Cc1ccc(-c2nn3c(C)nnc3s2)cc1N`: the Kd is > 4 mM (inactive).

On to `CN1CC(=O)N=C1N`, for which the Kd is > 4 mM (inactive).

As for `O=c1ccn(Cc2ccccc2)c(=O)n1Cc1ccccc1`, the Kd is > 4 mM (inactive).

As for `O=C(O)CC12CC3CC(CC(O)(C3)C1)C2`, the Kd is > 4 mM (inactive).

On to `O=C(O)c1cccnc1-c1nc2ccccc2s1`, for which the Kd is > 4 mM (inactive).

For the compound `Nc1ccc(-n2cccc2)cc1`, the Kd was > 4 mM (inactive).

Turning to `NCc1nnnn1-c1ccccc1`, the Kd was > 4 mM (inactive).
